Reference: patent publication US6512130B1, “Mifepristone analogue, process for the preparation thereof and use thereof” (Council of Scientific and Industrial Research, priority 2000, dated 2003)
Several values for one entry are separate records, joined by “and”; a condition that tells them apart may be missing. Equal values may be shown once.

Biological target: T1, rabbit uterine progesterone receptor (Oryctolagus cuniculus, UniProt P06186)
T1 construct: performed using rabbit uterine cytosol and 3H progesterone (radioligand); from tissue; host or cells: uterus of immature, estradiol-dipropionate-primed rabbits; 105000 x g cytosol treated with dextran-coated charcoal
T1 sequence (P06186 1-930): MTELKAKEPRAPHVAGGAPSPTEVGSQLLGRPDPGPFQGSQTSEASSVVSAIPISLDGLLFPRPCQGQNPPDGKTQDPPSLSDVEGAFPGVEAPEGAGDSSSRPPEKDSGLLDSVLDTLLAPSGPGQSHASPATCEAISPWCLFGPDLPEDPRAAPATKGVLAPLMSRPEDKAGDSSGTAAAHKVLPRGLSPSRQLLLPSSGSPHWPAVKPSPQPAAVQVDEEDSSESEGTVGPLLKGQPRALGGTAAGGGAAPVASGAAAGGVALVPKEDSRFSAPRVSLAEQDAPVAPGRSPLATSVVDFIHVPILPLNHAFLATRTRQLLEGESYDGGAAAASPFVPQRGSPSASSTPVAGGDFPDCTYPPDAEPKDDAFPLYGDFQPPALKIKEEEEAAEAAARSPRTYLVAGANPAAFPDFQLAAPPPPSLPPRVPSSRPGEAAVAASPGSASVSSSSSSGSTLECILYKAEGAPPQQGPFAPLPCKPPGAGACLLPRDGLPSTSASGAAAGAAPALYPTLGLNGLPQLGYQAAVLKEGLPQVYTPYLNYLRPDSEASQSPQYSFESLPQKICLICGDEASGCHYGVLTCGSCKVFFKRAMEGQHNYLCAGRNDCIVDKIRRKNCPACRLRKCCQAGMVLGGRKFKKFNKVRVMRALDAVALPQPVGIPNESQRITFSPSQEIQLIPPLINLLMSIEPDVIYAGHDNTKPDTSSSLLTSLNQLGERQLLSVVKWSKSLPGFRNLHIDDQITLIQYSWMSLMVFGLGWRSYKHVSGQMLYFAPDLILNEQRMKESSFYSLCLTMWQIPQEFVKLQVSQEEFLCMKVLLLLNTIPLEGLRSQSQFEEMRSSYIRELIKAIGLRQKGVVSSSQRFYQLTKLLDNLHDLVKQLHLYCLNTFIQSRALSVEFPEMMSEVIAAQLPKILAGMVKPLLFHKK
Assay: Competitive binding assay for progesterone receptors using rabbit uterine cytosol and 3H-progesterone
Conditions: rabbit uterine cytosol, 3H-progesterone 8×10^−9 M, 1 μM unlabelled cortisol, 4° C. 20 hours; progesterone taken as 100
Experimental: Crude products 3, 4, and 5 may be purified by column chromatography using silica gel, basic alumina, acidic alumina or neutral alumina as adsorbants and ethyl acetate, ethyl acetate-benzene, or ethyl acetate-chloroform as solvent systems. […] The competitive binding assay for progesterone receptors (PR) was performed using rabbit uterine cytosol and 3H progesterone (radioligand) in the presence of unlabelled cortisol at 4° C. Competitor dilutions were prepared in DMF:Tris buffer pH 7.4 (1:1). […] The activity of progesterone is taken as 100.
Animals. Immature rabbits weighing about 1 kg were administered 100 μg estradioldipropionate intramuscularly for four days and were sacrificed on the fifth day. Uteri were removed, washed with ice cold saline and weighed. Uteri were homogenised in four volumes of 50 mM Tris buffer, pH 7.4 containing 1 mM EDTA, 12 mM monothioglycerol and 10% glycerol (v/v) at 2° C. using polytron PT-10 homoniser.
The homogenate was ultracentrifuged at 105000×g for 60 minutes at 4° C. The resultant supernatant (cytosol) was treated with equal volume of dextran coated charcoal (0.5% charcoal and 0.05% dextran in TEMG buffer) for 30 minutes with occasional stirring at 0° C. DCC treated cytosol was used for binding assay.
Prior to the assay, cytosol was Incubated with 1 μM unlabelled cortisol for 30 minutes at 0° C. Aliquots of the cytosol were incubated at 4° C. for 20 hours with a constant concentration of ^3H-progesterone (8×10^−9 M) in the absence or presence of increasing concentration (1 to 10000×10^−9 M) of either unlabelled progesteroine or test compounds. ^3H-progesterone bound was measured for each incubate by the technique of charcoal adsorption.
Calculation of relative binding affinity of test compounds was done by plotting the curves between the percentage of bound titrated progesterone as a function of the iogarithm of the unlabelled progesterone concentration and as a function of logarithm of the concentration of unlabelled test compounds (FIGS. 1 and 2). […]

Relative binding affinity (%) | SMILES
103% and 103.44% | CC#C[C@]1(O)CC[C@H]2[C@@H]3CCC4=CC(=O)CCC4=C3[C@@H](c3ccc(N(C)C)cc3)C[C@@]21C [Compound 6, Mifepristone]
174.65% | CC(C)C#C[C@]1(O)CCC2C3CCC4=CC(=O)CCC4=C3C(c3ccc(N(C)C)cc3)C[C@@]21C (stereo partly drawn) [Compound 1, 11β-[4-(N,N-dimethylamino)phenyl]-17β-hydroxy-17α-(3-methyl-1-butynyl)-estra-4,9-dien-3-one]
100% | CC(=O)[C@H]1CC[C@H]2[C@@H]3CCC4=CC(=O)CC[C@]4(C)[C@H]3CC[C@]12C [Progesterone]
